Columns and labels:
[1] = tested on: human embryonic kidney 293 (HEK293) cells; assay: Toxicity of Nucleoside Triphosphates (NTPs), CYTO TOX-GLO assay; format: cell-based; conditions: human
Protocol: The cytotoxicity of natural and modified nucleoside triphosphates (NTPs) alone or in combination with other bases, was analyzed in human embryonic kidney 293 (HEK293) cells in the absence of transfection reagent. […] 10 ul of the NTPs outlined in Table 12 were combined with 10 ul of lipid dilution and incubated for 30 minutes to form a complex before 80 ul of the HEK293 cell suspension was added to the NTP complex. Natural and modified NTPs were transfected at a concentration of 2.1 nM, 21 nM, 210 nM, 2.1 um, 21 uM, 210 um or 2.1 mM. NTPs in combination were transfected at a total concentration of NTPs of 8.4 nM, 84 nM, 840 nM, 8.4 uM, 84 uM, 840 uM and 8.4 mM.

[2] = tested on: peripheral blood mononuclear cells (PBMC); assay: In Vitro Screening in PBMC - G-CSF protein expression; format: cell-based, human; conditions: 500 ng mRNA
From the text: The supernatant was harvested and stored frozen until analyzed by ELISA to determine the G-CSF protein expression, and the induction of the cytokines interferon-alpha (IFN-α) and tumor necrosis factor alpha (TNF-α).

[3] = PBMC Donor 1, 0.4 uL Lipofectamine 2000

Nc1ncnc2nc[nH]c12 [Adenine]
percent of viable cells ([1]; 4 h, 2.1 nM): 93.48%
percent of viable cells ([1]; 4 h, 21 nM): 93.21%
percent of viable cells ([1]; 4 h, 210 nM): 90.36%
percent of viable cells ([1]; 4 h, 2.1 uM): 90.23%
percent of viable cells ([1]; 4 h, 21 uM): 91.20%
percent of viable cells ([1]; 4 h, 210 uM): 85.97%
percent of viable cells ([1]; 4 h, 2.1 mM): 90.03%
percent of viable cells ([1]; 24 h, 2.1 nM): 86.44%
percent of viable cells ([1]; 24 h, 21 nM): 87.19%
percent of viable cells ([1]; 24 h, 210 nM): 86.94%
percent of viable cells ([1]; 24 h, 2.1 uM): 86.81%
percent of viable cells ([1]; 24 h, 21 uM): 86.86%
percent of viable cells ([1]; 24 h, 210 uM): 87.31%
percent of viable cells ([1]; 24 h, 2.1 mM): 88.42%
percent of viable cells ([1]; 48 h, 2.1 nM): 92.12%
percent of viable cells ([1]; 48 h, 21 nM): 91.13%
percent of viable cells ([1]; 48 h, 210 nM): 89.17%
percent of viable cells ([1]; 48 h, 2.1 uM): 89.80%
percent of viable cells ([1]; 48 h, 21 uM): 89.94%
percent of viable cells ([1]; 48 h, 210 uM): 90.55%
percent of viable cells ([1]; 48 h, 2.1 mM): 93.71%
percent of viable cells ([1]; 72 h, 2.1 nM): 95.74%
percent of viable cells ([1]; 72 h, 21 nM): 93.88%
percent of viable cells ([1]; 72 h, 210 nM): 92.22%
percent of viable cells ([1]; 72 h, 2.1 uM): 94.58%
percent of viable cells ([1]; 72 h, 21 uM): 93.83%
percent of viable cells ([1]; 72 h, 210 uM): 94.81%
percent of viable cells ([1]; 72 h, 2.1 mM): 97.49%

Cn1cnc2c(ncn2[C@@H]2O[C@H](CO)[C@@H](O)[C@H]2O)c1=N [N1-methyladenosine]
G-CSF Protein Expression [2, 3]: 182 pg/mL
G-CSF Protein Expression ([2]; PBMC Donor 2): 177 pg/mL
G-CSF Protein Expression ([2]; PBMC Donor 3): 191 pg/mL

COC(=O)C=Cc1cn([C@@H]2O[C@H](CO)[C@@H](O)[C@H]2O)c(=O)[nH]c1=O [5-(2-carbomethoxyvinyl)uridine]
G-CSF Protein Expression [2, 3]: 77 pg/mL
G-CSF Protein Expression ([2]; PBMC Donor 2): 286 pg/mL
G-CSF Protein Expression ([2]; PBMC Donor 3): 177 pg/mL

O=c1cc[nH]c(=O)[nH]1 [Uracil]
percent of viable cells ([1]; 4 h, 2.1 nM): 93.15%
percent of viable cells ([1]; 4 h, 21 nM): 92.90%
percent of viable cells ([1]; 4 h, 210 nM): 91.05%
percent of viable cells ([1]; 4 h, 2.1 uM): 90.90%
percent of viable cells ([1]; 4 h, 21 uM): 91.95%
percent of viable cells ([1]; 4 h, 210 uM): 89.60%
percent of viable cells ([1]; 4 h, 2.1 mM): 90.97%
percent of viable cells ([1]; 24 h, 2.1 nM): 87.63%
percent of viable cells ([1]; 24 h, 21 nM): 87.23%
percent of viable cells ([1]; 24 h, 210 nM): 86.52%
percent of viable cells ([1]; 24 h, 2.1 uM): 86.75%
percent of viable cells ([1]; 24 h, 21 uM): 85.89%
percent of viable cells ([1]; 24 h, 210 uM): 86.48%
percent of viable cells ([1]; 24 h, 2.1 mM): 87.68%
percent of viable cells ([1]; 48 h, 2.1 nM): 91.28%
percent of viable cells ([1]; 48 h, 21 nM): 88.89%
percent of viable cells ([1]; 48 h, 210 nM): 88.33%
percent of viable cells ([1]; 48 h, 2.1 uM): 89.44%
percent of viable cells ([1]; 48 h, 21 uM): 89.11%
percent of viable cells ([1]; 48 h, 210 uM): 88.98%
percent of viable cells ([1]; 48 h, 2.1 mM): 94.39%
percent of viable cells ([1]; 72 h, 2.1 nM): 95.51%
percent of viable cells ([1]; 72 h, 21 nM): 94.53%
percent of viable cells ([1]; 72 h, 210 nM): 94.50%
percent of viable cells ([1]; 72 h, 2.1 uM): 94.60%
percent of viable cells ([1]; 72 h, 21 uM): 93.63%
percent of viable cells ([1]; 72 h, 210 uM): 93.45%
percent of viable cells ([1]; 72 h, 2.1 mM): 96.82%

Cc1c[nH]c(=O)nc1N [5-methyl cytosine]
percent of viable cells ([1]; 4 h, 2.1 nM): 92.23%
percent of viable cells ([1]; 4 h, 21 nM): 91.40%
percent of viable cells ([1]; 4 h, 210 nM): 92.31%
percent of viable cells ([1]; 4 h, 2.1 uM): 91.31%
percent of viable cells ([1]; 4 h, 21 uM): 91.16%
percent of viable cells ([1]; 4 h, 210 uM): 91.54%
percent of viable cells ([1]; 4 h, 2.1 mM): 92.01%
percent of viable cells ([1]; 24 h, 2.1 nM): 86.35%
percent of viable cells ([1]; 24 h, 21 nM): 86.37%
percent of viable cells ([1]; 24 h, 210 nM): 84.71%
percent of viable cells ([1]; 24 h, 2.1 uM): 85.14%
percent of viable cells ([1]; 24 h, 21 uM): 84.72%
percent of viable cells ([1]; 24 h, 210 uM): 85.76%
percent of viable cells ([1]; 24 h, 2.1 mM): 87.97%
percent of viable cells ([1]; 48 h, 2.1 nM): 88.18%
percent of viable cells ([1]; 48 h, 21 nM): 87.10%
percent of viable cells ([1]; 48 h, 210 nM): 86.44%
percent of viable cells ([1]; 48 h, 2.1 uM): 86.18%
percent of viable cells ([1]; 48 h, 21 uM): 85.74%
percent of viable cells ([1]; 48 h, 210 uM): 85.94%
percent of viable cells ([1]; 48 h, 2.1 mM): 87.29%
percent of viable cells ([1]; 72 h, 2.1 nM): 91.93%
percent of viable cells ([1]; 72 h, 21 nM): 92.10%
percent of viable cells ([1]; 72 h, 210 nM): 89.97%
percent of viable cells ([1]; 72 h, 2.1 uM): 90.92%
percent of viable cells ([1]; 72 h, 21 uM): 92.26%
percent of viable cells ([1]; 72 h, 210 uM): 88.10%
percent of viable cells ([1]; 72 h, 2.1 mM): 96.08%

— patent publication US20130123481A1, “MODIFIED NUCLEOSIDES, NUCLEOTIDES, AND NUCLEIC ACIDS, AND USES THEREOF” (MODERNA THERAPEUTICS, priority 2011, published 2013)
